Columns and labels:
Type in all cases: cell-based, human
[1] = system: 4 kinds of ARaiv1 clones (ARaiv1, ARaiv1Δ1, ARaiv1Δ2, ARaiv1Δ3); assay: reporter gene assay of ARaiv1 clones with pGL3-2×PSA reporter in COS7 cell (luciferase); details: bicalutamide added 24 hr after cotransfection, luciferase assay 24 hr later
Protocol: The above-mentioned 4 kinds of ARaiv1 clones (ARaiv1 and ARaiv1Δ1, ARaiv1Δ2 and ARaiv1Δ3) were respectively subcloned to a pcDNA3.1 expression vector, and the transcription activity was examined by a reporter gene assay. The ARaiv1 clone expression vector and pGL3-2×PSA reporter were cotransfected into COS7 cell. After 24 hr, DHT or an AR antagonist bicalutamide, was added, and 24 hr later, a luciferase assay was performed.

JDCaP-hr cells = assay: JDCaP-hr cell proliferation after siRNA transfection; details: cultured for 5 days; for growth promotion due to DHT: DHT added; for cell proliferation (growth inhibition): androgen-free conditions
Protocol: siRNA targeting AR-specific exon 8 (siAR), siRNA targeting ARaiv1-specific exon 4b (siARaiv1) or siRNA targeting exon 1 common to the both (siDual) was transfected into JDCaP-hr cells, the cells were cultured for 5 days in an androgen-free medium added with DHT or DMSO, and the cell proliferation was measured (FIG. 7). […] On the other hand, the growth inhibitory effect was partial in the siAR transfection group.

full-length AR = assay: Western blotting of AR production after siRNA transfection in JDCaP-hr cells; details: 48 hr from siRNA transfection
Text: (§1) An siRNA targeting exon 4b specific to ARaiv1 (siARaiv1: 5′-[…]-3′ (SEQ ID NO: 29)) was designed and synthesized by Qiagen. In addition, an siRNA targeting exon 8 specific to AR (siAR: Hs_AR—6_HP Validated siRNA: 5′-[…]-3′ (SEQ ID NO: 30)) and an siRNA cocktail containing siRNA targeting exon 1 common to AR and ARaiv1 (siDual: OTP SMART pool, L-003400-00-0005) were purchased from Qiagen and Dharmacon, respectively. siAR, siARaiv1 or siDual was transfected into JDCaP-hr cells. RNA was extracted from the cells after 48 hr from the siRNA transfection, and the expression level of the target gene was analyzed by quantitative RT-PCR. As a result, it was confirmed that gene knockdown by each siRNA was carried out sufficiently efficiently (FIG. 6a). To examine changes in the C-terminally defective-type AR protein production, which were caused by the ARaiv1 knockdown, an extract was prepared from the cells after 48 hr from the siRNA transfection, and the production of AR and β-actin was examined by Western blotting. The production of only full-length AR in the siAR transfection group, only C-terminally defective-type AR in the siARaiv1 transfection group, and the both in the siDual transfection group decreased (FIG. 6b).

[2] = system: C-terminally defective-type AR; assay: as above; details: 48 hr from siRNA transfection
Text: as §1

22Rv1 cells = assay: colony formation assay of 22Rv1 cells after shRNA expression vector transfection; details: androgen-free conditions
Text: Expression plasmids of shRNA targeting AR-specific exon 8 (shAR), shRNA targeting ARaiv1-specific exon 4b (shARaiv1) and shRNA targeting exon 1 common to the both (shDual) were constructed using siSTRIKE U6 hairpin cloning system (Promega). The target sequences of shAR and siARaiv1 were the same as those of the above-mentioned siAR and siARaiv1. As the target sequence of shRNA specific to exon 1 (shDual), the sequence of exon 1-specific siRNA (5′-[…]-3′ (SEQ ID NO: 31)) contained in siDual was used.
The expression vector of shAR, siARaiv1 or shDual was transfected into 22Rv1 cells, and a colony formation assay was carried out under androgen-free conditions. In the siARaiv1 transfection group, the number of colonies decreased to 19% of that of the non-specific shRNA (shNS) transfection group (NS group). In the shDual transfection group, the number of colonies decreased to 4% of that of the NS group, and remarkable suppression of colony formation was observed. On the other hand, the colony formation ability of the shAR transfection group was 54% of the NS group, and the decrease was weaker as compared to the ARaiv1 knockdown group.

Row | Molecule | transcription activity of 4 kinds of ARaiv1 clones (reporter activity) [1] | growth promotion due to DHT (JDCaP-hr cells) | cell proliferation (growth inhibition) (JDCaP-hr cells) | production of full-length AR (full-length AR) | production of C-terminally defective-type AR [2] | number of colonies relative to non-specific shRNA (NS) group (22Rv1 cells)
1 | CC(O)(CS(=O)(=O)c1ccc(F)cc1)C(=O)Nc1ccc(C#N)c(C(F)(F)F)c1 (centres unmarked) [bicalutamide] | not inhibited |  |  |  |  | 
2 | siAR: siRNA targeting exon 8 specific to AR, Hs_AR—6_HP Validated siRNA: 5′-ggaacucgaucguaucauu-3′ (SEQ ID NO: 30) (GGAACUCGAUCGUAUCAUU; chemistry not given here) |  | remarkably inhibited | partial | decreased |  | 
3 | siARaiv1: siRNA targeting exon 4b specific to ARaiv1: 5′-gattgttcttgatcacata-3′ (SEQ ID NO: 29) (GATTGTTCTTGATCACATA; listed as DNA, chemistry not given here) |  | growth promotion due to DHT was observed | remarkable growth inhibition |  | decreased | 19%
